Results reported in patent US20250011292A1, “NOVEL RHODANINE DERIVATIVES AND USES THEREOF” (priority 2021, published 2025).
Like-named read-outs stand apart in the source and are kept apart here.

Tests used:
HeLa cells [1] = assay: Light-induced and dark cytotoxicity, CCK-8 assay, HeLa cells; assay type: cell-based; details: for IC50: 24 hours, mean ± SD; for light-induced (photo-induced) cytotoxicity (in words): with or without blue light irradiation
Description: (§1) HeLa cells and MCF-7 cells were purchased from ATCC (Manassas, VA). HeLa cells were cultured in high glucose DMEM culture medium (Sigma-Aldrich; St. Louis, MO) with glutamine, without sodium pyruvate, and supplemented with 10% fetal bovine serum (FBS) and 1% penicillin and […]. MCF-7 cells were cultured in MEM culture medium (Sigma-Aldrich) supplemented with 10% FBS and 1% penicillin and […]. Cells were incubated in 37° C. incubator with 5% CO2. Under dim light, compounds were dissolved in DMSO to form 20 mM stock solution and serially diluted in 96-well plate with full culture medium to form the working solution with DMSO concentration being 0.5% in all wells. HeLa and MCF-7 cells were seeded in 96-well plate at a density of 10^5/100 μL/well and incubated overnight, and then the culture medium was replaced with 100 μL of the compound-loaded working solution. The dark treatment group was kept in the incubator for 24 hours. The exposure treatment group was allowed to incubate for 30 minutes, followed by exposure with blue light for the designated time (5 min for 0.45 J/cm^2). After exposure, cells were returned to the incubator and incubated for 24 hours. 10 μL CCK-8 solution (Dojindo, Japan) was added to the cells in each well and incubated for 2 hours. The optical density at 450 nm of each well was read with the Perkin-Elmer Vector 3 plate reader (USA). Cells treated with 0.5% DMSO were used as the vehicle control and 100 μL culture medium with 10 μL CCK-8 was used as the blank control. Cell viability was calculated as: […]
(§2) All tests were in triplicate, and the IC50 was calculated with non-linear regression of concentration and cell viability by Graphpad Prism.
BW-PS-101 was incubated with cervical carcinoma HeLa cell line under darkness. After incubation for 30 min to facilitate internalization, cells were exposed to a low-power blue LED array (470 nm, 1.5 mW/cm^2, as described above) for 5 minutes (total irradiation energy 0.45 J/cm^2) and incubated for an additional 24 hours under darkness followed by cell viability determination with CCK-8 assay.

Quantum yield ϕΔ in MeOH = assay type: physicochemical
MCF-7 cells = assay: Light-induced and dark cytotoxicity, CCK-8 assay, MCF-7 cells; assay type: cell-based; details: 24 hours, mean ± SD
Description: FIGS. 3A-3K are graphs showing the dose response of compounds as described herein in MCF-7 cells. […] The cells were treated and allowed the incubate for 24 hours (labeled in the figures as the compound name followed by “DARK”) or were treated, incubated for 30 minutes, exposed to light for a designated time, and then incubated for 24 hours (labeled in the figures as the compound name followed by “EXPO”).
as §1, §2
Additional compounds as described herein were tested. […] Light-induced cytotoxicity was then evaluated. […] PS-107, a compound with the furan ring replaced by phenyl, was synthesized as the structural mimetic control. […] All compounds were also tested against MCF-7 breast cancer cell line, which gave a similar trend of activity (Table 4).

HeLa cells [2] = assay: Light-induced and dark cytotoxicity, CCK-8 assay, HeLa cells; assay type: cell-based; details: light energy 1.8 J/cm^2
early endosomes = assay: Fluorescence microscopy, endosome localization; assay type: cell-based; details: for accumulation / enrichment in endosomes: fluorescence microscopy / imaging studies
Description: FIG. 8 are fluorescence microscopy images of BW-PS-105 (first row), BW-PS-110 (second row), and BW-PS-120 (third row) localized in early endosomes.
The trimethoxy substituted analog BW-PS-105, which was fluorescent with an Ex/Em wavelength of 491 nm/574 nm, was incubated with HeLa cell at a concentration of 1 μM. […] Endosome enrichment of the photosensitizer led to the potency increase of about 5 folds. Targeting photosensitizers to the endosome efficiently induces cancer cell apoptosis by photodynamic therapy.

SARS-CoV-2 = assay: Inhibition of SARS-CoV-2 replication in infected Huh7 cells; assay type: cell-based; details: read-out: EC50, inhibition of viral replication against SARS-COV-2
Description: FIGS. 1A-1C are graphs showing the inhibition of SARS-CoV-2 replication in Huh-7 cells by BW-PS-108 (FIG. 1A), BW-PS-109 (FIG. 1B), and Compound 136 (FIG. 1C). The top line in FIGS. 1A and 1B represent cytotoxicity. Cell pellets from infected cells were collected at 48 hours after infection and viral RNA levels were measured by RT-PCR.
No solubility issues were encountered when studying their toxicity at 100 μM.
The potency levels of the compounds described herein compare favorably against remdesivir and molnupiravir. […] Further, the potency levels of the compounds described herein were also higher than Compound 136.

[3] = Homo sapiens, HeLa, light or radiation study, blue light, exposure light energy density 0.45 J/cm^2, read-out: Hela cells Exposure IC50
[4] = Homo sapiens, HeLa, dark, read-out: Hela cells Dark IC50
[5] = Homo sapiens, MCF7, light or radiation study, blue light, exposure light energy density 0.45 J/cm^2, read-out: MCF-7 cells Exposure IC50
[6] = Homo sapiens, MCF7, dark, read-out: MCF-7 cells Dark IC50
[7] = blue light, exposure light energy density 0.45 J/cm^2, read-out: Hela cells Exposure IC50
[8] = dark, read-out: Hela cells Dark IC50
[9] = viral RNA by RT-PCR 48 hours after infection
[10] = blue light, exposure light energy density 0.45 J/cm^2, read-out: MCF-7 cells Exposure IC50
[11] = dark, read-out: MCF-7 cells Dark IC50

Structure (SMILES)	IC50 (HeLa cells [1]; [3]) [nM]	IC50 (HeLa cells [1]; [4]) [nM]	ϕΔ MeOH) (Quantum yield ϕΔ in MeOH)	IC50 (MCF-7 cells; [5]) [nM]	IC50 (MCF-7 cells; [6]) [nM]	IC50 (HeLa cells [1]; [7]) [nM]	IC50 (HeLa cells [1]; [8]) [nM]	IC50 (MCF-7 cells; [10]) [nM]	IC50 (MCF-7 cells; [11]) [nM]	also measured
CCCN1C(=O)/C(=C/c2ccc(-c3ccccc3)o2)SC1=S [BW-PS-101, (Z)-5-((5-phenylfuran-2-yl)methylene)-3-propyl-2-thioxothiazolidin-4-one]	1380 ± 50	> 100000	0.109	740 ± 140	> 100000					cytotoxicity of cells treated in the dark (in words) (HeLa cells [1]; HeLa, dark, up to 100 μM): did not show any cytotoxicity; IC50 in the HeLa cell at higher light energy (HeLa cells [2]): submicromolar range
CCCN1C(=O)/C(=C/c2ccc(-c3ccc(F)cc3)o2)SC1=S [BW-PS-102, (Z)-5-((5-(4-fluorophenyl)furan-2-yl)methylene)-3-propyl-2-thioxothiazolidin-4-one]	1480 ± 140	> 100000	0.075	1260 ± 4	> 100000					light-induced (photo-induced) cytotoxicity (in words) (HeLa cells [1]): comparable activity as BW-PS-101
CCCN1C(=O)/C(=C/c2ccc(-c3ccc(O)cc3)o2)SC1=S [BW-PS-103, (Z)-5-((5-(4-hydroxyphenyl)furan-2-yl)methylene)-3-propyl-2-thioxothiazolidin-4-one]	3580 ± 130	> 100000	0.007	4250 ± 170	~100000					
CCCN1C(=O)/C(=C/c2ccc(-c3ccc(OC)cc3)o2)SC1=S [BW-PS-104, (Z)-5-((5-(4-methoxyphenyl)furan-2-yl)methylene)-3-propyl-2-thioxothiazolidin-4-one]	2710 ± 230	> 100000	0.015	2870 ± 920	> 100000					
CCCN1C(=O)/C(=C/c2ccc(-c3cc(OC)c(OC)c(OC)c3)o2)SC1=S [BW-PS-105, (Z)-3-propyl-2-thioxo-5-((5-(3,4,5-trimethoxyphenyl)furan-2-yl)methylene)thiazolidin-4-one]	2130 ± 300	> 100000	0.028	2710 ± 780	> 100000					accumulation / enrichment in endosomes (early endosomes): accumulation
CCCN1C(=O)/C(=C/c2ccc(-c3ccc(C(F)(F)F)cc3)o2)SC1=S [BW-PS-106, (Z)-3-propyl-2-thioxo-5-((5-(4-(trifluoromethyl)phenyl)furan-2-yl)methylene)thiazolidin-4-one]	2960 ± 90	> 100000	0.182	2580 ± 730	> 100000					
CCCN1C(=O)/C(=C/c2cccc(-c3ccc(F)cc3)c2)SC1=S [BW-PS-107, (Z)-5-((4′-fluoro-[1,1′-biphenyl]-3-yl)methylene)-3-propyl-2-thioxothiazolidin-4-one]	> 100000			> 100000						light-induced (photo-induced) cytotoxicity (in words) (HeLa cells [1]): did not show any photo-induced cytotoxicity
O=C1C(=Cc2ccc(-c3ccccc3)o2)SC(=S)N1CCN1CCOCC1 [BW-PS-108]			0.086			950 ± 20	> 100000	1220 ± 10	> 100000	EC50 (SARS-CoV-2; [9]): 280 nM
O=C1C(=Cc2ccc(-c3ccc(C(F)(F)F)cc3)o2)SC(=S)N1CCN1CCOCC1 [BW-PS-109]			0.115			630 ± 70	> 100000	530 ± 90	> 100000	EC50 (SARS-CoV-2; [9]): 190 nM
COc1cc(-c2ccc(C=C3SC(=S)N(CCN4CCOCC4)C3=O)o2)cc(OC)c1OC [BW-PS-110]						1740 ± 160	> 100000	1250 ± 170	> 100000	co-localization with the endosome marker CellularLight endosomes-GFP (early endosomes; fluorescence microscopy): good co-localization; accumulation / enrichment in endosomes (early endosomes): accumulation
N.N.[Cl][Pt][Cl] [Cisplatin, cisplatin, reference compound]						5950 ± 170	7540 ± 450	13300 ± 1450	12500 ± 2860	
CCC(CC)COC(=O)[C@H](C)N[P@](=O)(OC[C@H]1O[C@@](C#N)(c2ccc3c(N)ncnn23)[C@H](O)[C@@H]1O)Oc1ccccc1 [remdesivir, reference compound]										EC50 (SARS-CoV-2; Severe acute respiratory syndrome coronavirus 2, Huh-7, viral RNA by RT-PCR 48 hours after infection): 700 nM
